Experiment [1] concerns the target T1, Glycylpeptide N-tetradecanoyltransferase 1 (Homo sapiens, UniProt P30419).
T1 sequence (P30419 whole entry): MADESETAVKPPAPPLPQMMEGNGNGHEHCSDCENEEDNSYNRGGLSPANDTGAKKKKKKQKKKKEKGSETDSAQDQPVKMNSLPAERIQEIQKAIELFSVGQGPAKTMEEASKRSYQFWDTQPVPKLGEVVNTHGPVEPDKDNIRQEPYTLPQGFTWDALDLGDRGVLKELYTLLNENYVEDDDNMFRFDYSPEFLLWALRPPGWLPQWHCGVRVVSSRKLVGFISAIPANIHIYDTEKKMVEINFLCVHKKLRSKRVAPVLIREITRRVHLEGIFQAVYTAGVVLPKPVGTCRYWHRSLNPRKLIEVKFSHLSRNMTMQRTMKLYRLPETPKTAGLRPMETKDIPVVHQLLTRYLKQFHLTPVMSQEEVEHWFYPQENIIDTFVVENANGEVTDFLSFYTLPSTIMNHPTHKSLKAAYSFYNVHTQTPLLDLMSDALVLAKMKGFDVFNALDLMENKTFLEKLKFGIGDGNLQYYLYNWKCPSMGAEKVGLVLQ
As to the kind of experiment: Enzyme Inhibition Assay: Measurements were performed using a modification of the scintillation proximity assay platform described previously by Georgopapadakou, N. H. et al. (22nd International Congress on Chemotherapy, 2001, Abstract P16.001). Compounds were solubilised in DMSO at a top concentration of 10 mM and serially diluted in half log steps to achieve a range of final assay concentrations …. For orientation: Scintillation proximity formats need no separation of bound from free tracer.

For experiment [2], the target named is T2, Glycylpeptide N-tetradecanoyltransferase (Leishmania major, UniProt Q4Q5S8).
T2 sequence (Q4Q5S8 whole entry): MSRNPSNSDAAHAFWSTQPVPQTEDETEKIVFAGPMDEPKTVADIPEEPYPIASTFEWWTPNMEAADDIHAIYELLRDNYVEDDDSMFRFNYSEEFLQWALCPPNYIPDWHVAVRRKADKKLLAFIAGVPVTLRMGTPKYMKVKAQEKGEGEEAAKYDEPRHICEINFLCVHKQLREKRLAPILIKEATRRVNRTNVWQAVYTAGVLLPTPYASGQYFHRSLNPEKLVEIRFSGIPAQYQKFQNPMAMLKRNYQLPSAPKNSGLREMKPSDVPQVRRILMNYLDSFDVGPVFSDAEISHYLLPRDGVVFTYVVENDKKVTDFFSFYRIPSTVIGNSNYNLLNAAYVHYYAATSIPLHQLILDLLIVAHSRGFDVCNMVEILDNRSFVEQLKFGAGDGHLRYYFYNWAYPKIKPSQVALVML
The experiment is described as above.

This is an account of results in ChEMBL document CHEMBL3886282, “N-myristoyl transferase inhibitors” (2015).

Each structure is given as a SMILES string. Some results are limits rather than exact numbers.

For orientation: IC50 means the midpoint of a concentration-inhibition curve. Lower therefore signals greater potency. Regarding `Cc1nn(C)c(C)c1N(C(F)F)[S+](=O)([O-])c1c(Cl)cc(Br)cc1Cl`, the 50% inhibitory concentration (IC50) in experiment [1] and in experiment [2] was greater than 1000 nM in each case.

`Cc1nn(C)c(C)c1N(C(F)F)S(=O)(=O)c1c(Cl)cc(CCCOC2CC(C)(C)N(C)C(C)(C)C2)cc1Cl`: the IC50 in experiment [1] is greater than 1000 nM; in experiment [2], 40 nM.
